From patent publication US6448256B1, “Antibiotic prodrugs” (University of Massachusetts, priority 1999, dated 2002)
pKi: −log10 of the molar value. Values after ≈ are worked out from the molar mass of the structure shown. Where two headings read alike, the source gives them in different places.

Key:
E. fecalis = assay: MIC against E. fecalis; assay type: cell-based; conditions: for MIC: Table 5, vancomycin-sensitive, read-out: MIC EF
Protocol: (§1) To further investigate the antibacterial and/or DNA pol III inhibitory activity of various drug compounds, various ester-containing moieties N-linked to the EMAU core were produced as described in Example 1. These prodrugs were assayed for inhibition of B. subtilis DNA pol III and antibiotic activity against a number of bacteria.
(§2) The minimal inhibitory concentrations (MICs) of the four N3-substituted agents and EMAU were determined for B. subtilis (BS), methicillin-sensitive and resistant S. aureus (SA & MRSA), vancomycin-sensitive and resistant E. fecalis (EF& VREF), vancomycin-resistant E. fecium (VREF*), and E. coli (EC) as a Gram-negative control.

MRSA2 = assay: MIC against methicillin-resistant S. aureus strain MRSA2; assay type: cell-based; conditions: for MIC: Staphylococcus aureus, Table 5
Protocol: as §1, §2

MRSA = assay: MIC against methicillin-resistant S. aureus strain MRSA / MRSA1; assay type: cell-based; conditions: for MIC: Staphylococcus aureus, MRSA, Table 5
Protocol: as §1, §2

SA pol III = target: T1, SA pol III (Staphylococcus aureus, UniProt P0C1P9); assay: Inhibition of S. aureus pol III (Ki); assay type: biochemical; conditions: Table 4, average of 3 determinations, standard deviation 13.4%
T1 sequence (P0C1P9 1-1435): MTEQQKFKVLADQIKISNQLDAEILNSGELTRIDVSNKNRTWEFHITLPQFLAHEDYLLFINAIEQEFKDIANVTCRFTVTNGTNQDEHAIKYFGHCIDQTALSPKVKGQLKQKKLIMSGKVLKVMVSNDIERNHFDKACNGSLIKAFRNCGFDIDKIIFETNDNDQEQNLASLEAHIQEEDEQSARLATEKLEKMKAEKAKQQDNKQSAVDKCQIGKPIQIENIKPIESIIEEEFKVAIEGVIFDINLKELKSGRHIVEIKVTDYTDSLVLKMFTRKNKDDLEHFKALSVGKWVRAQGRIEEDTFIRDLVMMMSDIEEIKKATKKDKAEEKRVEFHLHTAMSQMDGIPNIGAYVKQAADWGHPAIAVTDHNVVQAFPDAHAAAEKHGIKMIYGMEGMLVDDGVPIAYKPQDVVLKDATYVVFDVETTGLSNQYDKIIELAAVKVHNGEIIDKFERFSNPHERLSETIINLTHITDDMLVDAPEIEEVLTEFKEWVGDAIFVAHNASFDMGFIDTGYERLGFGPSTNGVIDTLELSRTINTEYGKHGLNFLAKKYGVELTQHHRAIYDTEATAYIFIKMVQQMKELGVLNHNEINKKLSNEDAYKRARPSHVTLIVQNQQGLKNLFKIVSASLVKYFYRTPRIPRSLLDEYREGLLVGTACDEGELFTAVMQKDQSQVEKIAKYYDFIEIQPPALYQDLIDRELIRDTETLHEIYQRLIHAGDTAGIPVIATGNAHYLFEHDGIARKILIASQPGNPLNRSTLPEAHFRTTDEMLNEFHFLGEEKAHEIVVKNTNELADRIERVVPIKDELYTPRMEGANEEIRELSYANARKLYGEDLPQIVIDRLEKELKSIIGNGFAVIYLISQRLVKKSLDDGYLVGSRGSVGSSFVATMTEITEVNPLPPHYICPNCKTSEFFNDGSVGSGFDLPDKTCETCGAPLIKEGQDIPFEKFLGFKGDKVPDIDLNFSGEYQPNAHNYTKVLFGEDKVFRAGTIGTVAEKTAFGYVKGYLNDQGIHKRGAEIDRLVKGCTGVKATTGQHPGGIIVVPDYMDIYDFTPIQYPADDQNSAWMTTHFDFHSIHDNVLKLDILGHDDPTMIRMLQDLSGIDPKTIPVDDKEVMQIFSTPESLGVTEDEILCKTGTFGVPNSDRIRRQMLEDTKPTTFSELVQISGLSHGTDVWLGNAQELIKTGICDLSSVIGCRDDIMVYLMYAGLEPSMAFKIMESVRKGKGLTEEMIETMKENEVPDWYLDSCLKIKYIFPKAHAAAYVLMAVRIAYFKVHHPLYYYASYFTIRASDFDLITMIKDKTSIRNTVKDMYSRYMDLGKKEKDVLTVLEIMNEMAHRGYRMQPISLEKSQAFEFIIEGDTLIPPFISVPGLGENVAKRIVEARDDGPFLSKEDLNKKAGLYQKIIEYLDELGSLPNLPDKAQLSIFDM
Protocol: (§3) The competitive inhibitor constants (Ki) of selected EMAU compounds were determined with three different pol Ills: the pol III enzyme from Bacillus subtilis (BS pol III), and the pol III enzymes of the clinically relevant pathogens, Enterococcus fecalis (EF pol III) and Staphylococcus aureus (SA pol 111).

S. aureus = assay: MIC against S. aureus (methicillin-sensitive); assay type: cell-based; conditions: for MIC: Staphylococcus aureus
Protocol: as §1, §2

EF pol III = EF pol III (Enterococcus faecalis, UniProt Q831W8); assay: Inhibition of E. fecalis pol III (Ki); assay type: biochemical
Protocol: as §3

B. subtilis [1] = assay: MIC against B. subtilis; assay type: cell-based; conditions: for MIC: Bacillus subtilis, Table 5, read-out: MIC BS
Protocol: as §1, §2

[2] = test system: vancomycin-resistant E. fecium; assay: MIC against vancomycin-resistant E. fecium (VRE, VREF*); assay type: cell-based; conditions: for MIC: Enterococcus, Table 5, vancomycin-resistant E. fecium
Protocol: as §1, §2

[3] = test system: vancomycin-resistant E. fecalis; assay: MIC against vancomycin-resistant E. fecalis (VREF); assay type: cell-based; conditions: Table 5, vancomycin-resistant E. fecalis
Protocol: as §2

B. subtilis DNA pol III = B. subtilis DNA pol III (Bacillus subtilis, UniProt P13267); assay: Inhibition of B. subtilis DNA pol III (Ki); assay type: biochemical
B. subtilis DNA pol III, sequence (P13267 whole entry): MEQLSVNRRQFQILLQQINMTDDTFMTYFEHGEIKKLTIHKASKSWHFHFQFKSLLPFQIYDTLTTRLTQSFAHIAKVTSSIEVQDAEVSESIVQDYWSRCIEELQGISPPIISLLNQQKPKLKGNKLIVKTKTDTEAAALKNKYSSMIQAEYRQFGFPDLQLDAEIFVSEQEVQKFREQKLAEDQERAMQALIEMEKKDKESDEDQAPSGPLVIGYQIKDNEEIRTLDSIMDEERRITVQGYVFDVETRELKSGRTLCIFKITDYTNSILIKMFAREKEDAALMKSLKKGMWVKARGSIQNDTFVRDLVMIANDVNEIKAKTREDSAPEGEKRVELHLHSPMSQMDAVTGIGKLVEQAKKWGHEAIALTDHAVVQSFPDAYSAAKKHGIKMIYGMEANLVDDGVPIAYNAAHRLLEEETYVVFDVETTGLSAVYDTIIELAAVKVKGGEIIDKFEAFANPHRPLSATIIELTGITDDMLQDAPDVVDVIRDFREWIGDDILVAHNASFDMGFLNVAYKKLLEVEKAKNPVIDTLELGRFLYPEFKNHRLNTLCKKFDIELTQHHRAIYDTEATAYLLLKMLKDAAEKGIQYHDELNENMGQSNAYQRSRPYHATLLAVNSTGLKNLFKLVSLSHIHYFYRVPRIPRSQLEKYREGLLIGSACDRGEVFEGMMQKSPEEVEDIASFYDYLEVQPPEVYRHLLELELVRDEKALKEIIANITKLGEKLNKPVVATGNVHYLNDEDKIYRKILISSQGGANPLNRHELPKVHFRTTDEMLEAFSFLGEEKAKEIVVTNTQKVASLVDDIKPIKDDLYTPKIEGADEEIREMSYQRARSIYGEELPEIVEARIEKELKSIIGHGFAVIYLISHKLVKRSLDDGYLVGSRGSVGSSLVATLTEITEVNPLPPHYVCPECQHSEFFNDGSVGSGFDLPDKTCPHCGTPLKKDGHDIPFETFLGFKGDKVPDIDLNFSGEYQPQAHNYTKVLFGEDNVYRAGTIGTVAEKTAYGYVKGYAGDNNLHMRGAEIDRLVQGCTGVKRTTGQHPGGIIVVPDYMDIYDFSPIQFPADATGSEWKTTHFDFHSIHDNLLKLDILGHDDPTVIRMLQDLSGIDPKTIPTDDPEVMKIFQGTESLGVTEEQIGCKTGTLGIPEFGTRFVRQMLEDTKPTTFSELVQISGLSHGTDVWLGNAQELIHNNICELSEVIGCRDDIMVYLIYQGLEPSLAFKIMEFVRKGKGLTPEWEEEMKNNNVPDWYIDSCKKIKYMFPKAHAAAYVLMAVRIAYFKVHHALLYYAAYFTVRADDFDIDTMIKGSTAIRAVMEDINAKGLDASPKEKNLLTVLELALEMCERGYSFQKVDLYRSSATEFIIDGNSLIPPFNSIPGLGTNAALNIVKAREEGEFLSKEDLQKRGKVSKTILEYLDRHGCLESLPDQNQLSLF
Protocol: as §1, §3

E. coli = assay: MIC against E. coli (Gram-negative control); assay type: cell-based; conditions: for MIC: Escherichia coli, Table 5, Gram-negative control
Protocol: as §1, §2

[4] = Prodrug conversion in mouse plasma in vitro (HPLC); assay type: in vitro ADME
Protocol: (§4) The conversion rate of prodrugs can be measured by first establishing a reverse phase HPLC method for the detection of both prodrug and drug in a biological sample such as plasma or serum. A stock solution of prodrug, usually in saline, is diluted 1:5 in animal plasma or saline. […] If necessary, the sample can be thawed in a 37° C. water bath. Aliquots of the diluted sample are taken at 15, 30, 45, 60, 90, 120, and 180 minutes. Longer time points are usually needed for saline solutions because the rates of spontaneous hydrolysis are much longer than for enzyme-catalyzed hydrolysis. The aliquots are analyzed at a 1:10 dilution using HPLC, and the fraction of prodrug which has been converted at each time point calculated.
(§5) The rate of formation of the drug and the rate of decay of the prodrug had doubling and half-life times, respectively, of about 30 minutes. In contrast, the estimated half-life of Val-B-EMAU in physiological saline at 37° C. was greater then 5000 hours. The mechanism for the decomposition of Val-B-EMAU by plasma is presumed to involve esterases in the circulation.
(§6) To further define the conversion rate of Val-B-EMAU (4a), the prodrug was incubated in 80% mouse plasma.

E. fecium = assay: MIC against E. fecium; assay type: cell-based; conditions: Table 2
Protocol: as §1

[5] = Prodrug stability in physiological saline; assay type: physicochemical
Protocol: as §4, §5, §6

Solubility in water = assay type: physicochemical; conditions: 25° C.
From the text: The prodrug 3-(L-valylbutyl)-EMAU (Val-B-EMAU, 4a) was synthesized as a hydrochloride. The structure was confirmed by NMR. The compound had high solubility in water. […] Two different synthesis methods were used.

[6] = Plasma pharmacokinetics after intravenous administration to mice; assay type: in vivo; conditions: mouse, plasma, intravenous, 25 mg/kg, tail vein, 25 mg/kg in saline (FIG. 1), read-out: half life of Val-B-EMAU in plasma
Protocol: (d) Elimination halfife and apparent volume of distribution. An appropriate dose of each agent (the maximum permitted by the results of the above dose/toxicity studies) is injected via the tail vein to a series of mice (e.g., 12). At specific times following injection (e.g., 10, 20, 30, 45, 90, and 150 minutes), mice (e.g., a pair) are restrained in DecapiCones and decapitated, and their blood collected individually by exsanguination into a sterile test tube.
The blood samples are centrifuged to yield clear plasma (yield: 0.4-0.6 ml per mouse). Approximately 0.2 ml of the plasma sample are used for HPLC analysis, using conditions established herein for quantitation of the compound. The individual plasma levels for each time point are averaged, and the data are analyzed to estimate Vd and half-life by established methods (Gibaldi, M. and D. Perrier. Pharmacokinetics. Marcel Dekker, Inc., New York, 1975).
Solutions of Val-B-EMAU in saline were next injected into the tail veins of mice at a dose of 25 mg/kg body weight. Animals were sacrificed at various times after dosing, and plasma was isolated and subjected to HPLC analysis.
Each value plotted in FIG. 3 represents the average of four measurements, each in a different animal.

[7] = test system: S. aureus (methicillin-sensitive Smith strain); assay: ip/ip mouse protection against lethal S. aureus infection; assay type: in vivo, mice
Protocol: Step 1: Screening—Each candidate prodrug is screened for activity in an ip/ip S. aureus protection model. Candidates that display efficacy equivalent to that of HB-EMAU and HB-IMAU are selected for advanced pharmacokinetic analysis and application in the more relevant mouse thigh model of infection.
The efficacy of the propyl derivatives was tested against murine staphylococcal infection in vivo. A simple “ip/ip” system was used, in which 20 gram mice (10 each) were injected ip (intraperitoneally) with a lethal dose (2.3×10^7 CFU) of the methicillin-sensitive Smith strain of S. aureus. The mice were then immediately injected ip with the antibiotic agent as a 1:9 mixture of DMSO:peanut oil. Vancomycin was used as the positive control drug.
Both hydroxybutyl compounds were tested at 10 mg/kg in the mouse protection experiment against lethal S. aureus infection described in Example 4 above.

B. subtilis [8] = assay: Antibacterial activity of crude compounds made by small scale synthesis; assay type: cell-based; conditions: Bacillus subtilis; crude reaction mixtures dissolved in DMSO, assayed directly
Protocol: 6-Anilinouracils were synthesized using small scale synthetic methods. One milligram quantities of 3-(3-methoxypropyl)-6-chlorouracil were heated with 42 substituted anilines in micro-test tubes at 130° C. for 20 minutes. The reaction mixtures were dissolved in DMSO and assayed directly for antibacterial activity.

[9] = Table 5, methicillin-sensitive, read-out: MIC SA
[10] = Table 4, average of 3 determinations, standard deviation 13.4%, read-out: KI Bs pol III
[11] = Table 4, average of 3 determinations, standard deviation 13.4%, read-out: KI EF pol III

SMILES	MIC (E. fecalis) [µg/mL]	MIC (MRSA2) [µg/mL]	MIC (MRSA) [µg/mL]	pKi (SA pol III)	MIC (S. aureus; [9]) [µg/mL]	MIC (B. subtilis [1]) [µg/mL]	MIC [2] [µg/mL]	MIC [3] [µg/mL]	pKi (B. subtilis DNA pol III; [10])	MIC (E. coli) [µg/mL]	pKi (EF pol III; [11])	further results
CCc1cc(Nc2cc(=O)[nH]c(=O)[nH]2)ccc1C [EMAU, 6-(3-ethyl-4-methylanilino)uracil, reference compound]	25 (≈ 102 µM)	25 (≈ 102 µM)	25 (≈ 102 µM)	6.09	25 (≈ 102 µM)	12 (≈ 48.9 µM)	25 (≈ 102 µM)	25 (≈ 102 µM)	6.60	> 35	–	pKi (EF pol III): 6.59
CCc1cc(Nc2cc(=O)n(CCOC)c(=O)[nH]2)ccc1C [ME-EMAU]	6.2 (≈ 20.4 µM)	12.4 (≈ 40.9 µM)	8.3 (≈ 27.4 µM)	6.09	10.3 (≈ 34 µM)	1 (≈ 3.3 µM)	8.3 (≈ 27.4 µM)	6.2 (≈ 20.4 µM)	6.72	> 35	6.80	–
CCc1cc(Nc2cc(=O)n(CCO)c(=O)[nH]2)ccc1C [HE-EMAU]	6.5 (≈ 22.5 µM)	17.4 (≈ 60.1 µM)	17.4 (≈ 60.1 µM)	6.01	8.7 (≈ 30.1 µM)	1.1 (≈ 3.8 µM)	8.7 (≈ 30.1 µM)	8.7 (≈ 30.1 µM)	6.70	> 35	6.77	–
CCc1cc(Nc2cc(=O)n(CCCCOC(=O)[C@@H](N)C(C)C)c(=O)[nH]2)ccc1C [Val-B-EMAU, 3-(L-valylbutyl)-EMAU]	–	–	–	–	–	–	–	–	–	–	–	half-life ([4]; 80% mouse plasma, 37° C. (FIG. 2), read-out: prodrug half-life): 37.8 min; half-life ([4]; mouse plasma, 37° C., HPLC, read-out: half-life of decay of the prodrug): ~30 min; MIC E. fecium (E. fecium): 33 μ/ml; MIC E. fecalis (E. fecalis; Table 2): 17 μ/ml; MIC MRSA2 (MRSA2; Table 2): 33 μ/ml; MIC MRSA (MRSA; Table 2): 33 μ/ml; MIC (S. aureus; Table 1, read-out: MIC S. aureus): < 20 µg/mL; MIC S. aureus (S. aureus; Table 2): 17 μ/ml; half-life ([5]; 37° C., read-out: estimated half-life in physiological saline): > 208 days; half-life ([5]; b125, read-out: half-life in physiological saline): 18.8 to 20.8 days; solubility (Solubility in water): > 10000 µg/mL; MIC B. subtilis (B. subtilis [1]; Table 2): 4 μ/ml; half-life [6]: 34 min; MIC VRE ([2]; Table 2, vancomycin-resistant E. fecium): 8 μ/ml; pKi (B. subtilis DNA pol III; Table 1, read-out: Ki B. subtilis pol III): 6.28; pKi (B. subtilis DNA pol III; Table 2, prodrugs having the EMAU core, read-out: Ki B. subtilis DNA Pol III): 6.28; MIC E. coli (E. coli; Table 2): >33 μ/ml
CCc1cc(Nc2cc(=O)n(CCCO)c(=O)[nH]2)ccc1C [HP-EMAU]	4.1 (≈ 13.5 µM)	8.3 (≈ 27.4 µM)	8.3 (≈ 27.4 µM)	6.38	4.1 (≈ 13.5 µM)	1 (≈ 3.3 µM)	4.1 (≈ 13.5 µM)	4.1 (≈ 13.5 µM)	6.48	> 35	6.85	animals protected ([7]; 5 mg/kg ip): 70%; protection of mice ([7]; 10 mg/kg ip, 10 mice, 2.3×10^7 CFU S. aureus Smith ip, DMSO:peanut oil 1:9): protected all mice
CCc1cc(Nc2cc(=O)n(CCCOC)c(=O)[nH]2)ccc1C [MP-EMAU]	1.9 (≈ 5.99 µM)	3.9 (≈ 12.3 µM)	3.9 (≈ 12.3 µM)	6.09	3.9 (≈ 12.3 µM)	0.5 (≈ 1.58 µM)	3.9 (≈ 12.3 µM)	1.9 (≈ 5.99 µM)	6.62	> 35	6.72	animals protected ([7]; 10 mg/kg ip): roughly 50%; animals protected ([7]; lower dose (5 mg/kg) ip): none; MIC (B. subtilis [8]): 3.13 µg/mL (≈ 9.86 µM)
